From US20140187784A1, “RADIOACTIVE QUINOLINONE DERIVATIVE AND PHARMACEUTICAL DRUG COMPRISING THE SAME” (Nihon Medi-Physics Co., Ltd., priority 2012, published 2014)

Experiment: Pharmacokinetic and distribution experiment (radioactivity in blood and excised organs after tail vein injection)
Assay type: in vivo
Conditions: ddy mice; for Adrenal gland/Blood ratio / Radioactivity Distribution, Blood / Radioactivity Distribution, Femur / Radioactivity Distribution, Heart / Radioactivity Distribution, Large intestine / Radioactivity Distribution, Lung / Radioactivity Distribution, Small intestine / Radioactivity Distribution, Spleen / Radioactivity Distribution, Stomach / Adrenal gland/Kidney ratio / Radioactivity Distribution, Adrenal gland / Radioactivity Distribution, Kidney / Radioactivity Distribution, Liver / Radioactivity Distribution, Pancreas / Adrenal gland/Liver ratio: tail vein injection; for Adrenal gland/Blood ratio / Radioactivity Distribution, Blood / Radioactivity Distribution, Femur / Radioactivity Distribution, Heart / Radioactivity Distribution, Large intestine / Radioactivity Distribution, Lung / Radioactivity Distribution, Small intestine / Radioactivity Distribution, Spleen / Radioactivity Distribution, Stomach: 14.8 kBq (4 μCi); for Adrenal gland/Kidney ratio / Radioactivity Distribution, Adrenal gland / Radioactivity Distribution, Kidney / Radioactivity Distribution, Liver / Radioactivity Distribution, Pancreas: 14.8 kBq
Method: (§1) The HPLC fraction of [^125I]PAY15 obtained in Example 3 was concentrated and then diluted with saline. The resulting solution was used in administration. 100 μL of the solution (18.5 kBq (0.5 μCi)) was injected to the tail vein of each of five ddy mice (6 weeks old). Five minutes later, each mouse was decapitated, and blood was collected. Then, organs (adrenal gland, pancreas, heart, lung, stomach, small intestine, large intestine, liver, spleen, kidney, and thyroid gland) were excised. After measurement of their weights, the radioactivities of blood and each excised organ were measured. Also, the point in time when each mouse was decapitated was changed to 5, 15, 30, 60, and 120 minutes later to perform similar operation.
The HPLC fraction of [^125I]PAY21 obtained in Example 6 was concentrated and then diluted with saline. The resulting solution was used in administration to perform the same operation as in Evaluation 1.
as §1, with “[^18F]PAY27 obtained” for “The HPLC fraction of [^125I]PAY15 obtained”, “Example 10” for “Example 3”, “was” for “was concentrated and then”, “solution (14.8” for “solution (18.5”, “kBq (4” for “kBq (0.5”, “and thigh bone)” for “and thyroid gland)”
as §1, with “[^18F]PAY54 obtained” for “The HPLC fraction of [^125I]PAY15 obtained”, “Example 13” for “Example 3”, “was” for “was concentrated and then”, “solution (14.8” for “solution (18.5”, “kBq (4” for “kBq (0.5”, “and thigh bone)” for “and thyroid gland)”

## O=C1CCc2cc(-c3cncc(OCC[18F])c3)cc3c2N1CCC3 [[^18F]PAY27, 9-(5-(2-[^18F]fluoroethyloxy)pyridin-3-yl)-1,2,6,7-tetrahydro-5H-pyrido[3,2,1-ij]quinolin-3-one]
At 60 minutes after administration
  radioactivity accumulation in the adrenal gland compared with blood and periadrenal tissues: high radioactivity accumulation
5 min
  Adrenal gland/Blood ratio: 1.11 ± 0.17
  Radioactivity Distribution, Blood: 4.0 ± 0.3 % dose/g
  Radioactivity Distribution, Femur: 1.8 ± 0.1 % dose/g
  Radioactivity Distribution, Heart: 3.9 ± 0.3 % dose/g
  Radioactivity Distribution, Large intestine: 2.5 ± 0.2 % dose/g
  Radioactivity Distribution, Lung: 3.7 ± 0.4 % dose/g
  Radioactivity Distribution, Small intestine: 5.0 ± 0.4 % dose/g
  Radioactivity Distribution, Spleen: 3.0 ± 0.2 % dose/g
  Radioactivity Distribution, Stomach: 5.1 ± 0.4 % dose/g
  Adrenal gland/Kidney ratio: 1.00 ± 0.19
  Radioactivity Distribution, Adrenal gland: 4.5 ± 0.8 % dose/g
  Radioactivity Distribution, Kidney: 4.5 ± 0.3 % dose/g
  Radioactivity Distribution, Liver: 6.5 ± 1.0 % dose/g
  Radioactivity Distribution, Pancreas: 3.0 ± 0.4 % dose/g
  Adrenal gland/Liver ratio: 0.70 ± 0.16
15 min
  Adrenal gland/Blood ratio: 0.83 ± 0.12
  Radioactivity Distribution, Blood: 4.1 ± 0.2 % dose/g
  Radioactivity Distribution, Femur: 2.3 ± 0.1 % dose/g
  Radioactivity Distribution, Heart: 3.6 ± 0.2 % dose/g
  Radioactivity Distribution, Large intestine: 5.0 ± 0.4 % dose/g
  Radioactivity Distribution, Lung: 3.6 ± 0.1 % dose/g
  Radioactivity Distribution, Small intestine: 6.7 ± 0.6 % dose/g
  Radioactivity Distribution, Spleen: 2.8 ± 0.2 % dose/g
  Radioactivity Distribution, Stomach: 5.6 ± 1.1 % dose/g
  Adrenal gland/Kidney ratio: 0.99 ± 0.23
  Radioactivity Distribution, Adrenal gland: 3.4 ± 0.5 % dose/g
  Radioactivity Distribution, Kidney: 3.5 ± 0.3 % dose/g
  Radioactivity Distribution, Liver: 5.1 ± 0.3 % dose/g
  Radioactivity Distribution, Pancreas: 2.5 ± 0.2 % dose/g
  Adrenal gland/Liver ratio: 0.67 ± 0.06
30 min
  Adrenal gland/Blood ratio: 0.88 ± 0.18
  Radioactivity Distribution, Blood: 3.6 ± 0.3 % dose/g
  Radioactivity Distribution, Femur: 2.4 ± 0.2 % dose/g
  Radioactivity Distribution, Heart: 3.2 ± 0.4 % dose/g
  Radioactivity Distribution, Large intestine: 6.1 ± 0.4 % dose/g
  Radioactivity Distribution, Lung: 2.7 ± 0.2 % dose/g
  Radioactivity Distribution, Small intestine: 5.9 ± 0.5 % dose/g
  Radioactivity Distribution, Spleen: 2.3 ± 0.1 % dose/g
  Radioactivity Distribution, Stomach: 5.5 ± 0.4 % dose/g
  Adrenal gland/Kidney ratio: 1.40 ± 0.28
  Radioactivity Distribution, Adrenal gland: 3.2 ± 0.6 % dose/g
  Radioactivity Distribution, Kidney: 2.3 ± 0.2 % dose/g
  Radioactivity Distribution, Liver: 4.1 ± 0.5 % dose/g
  Radioactivity Distribution, Pancreas: 2.0 ± 0.1 % dose/g
  Adrenal gland/Liver ratio: 0.79 ± 0.20
60 min
  Adrenal gland/Blood ratio: 1.43 ± 0.47
  Radioactivity Distribution, Blood: 3.3 ± 0.1 % dose/g
  Radioactivity Distribution, Femur: 3.9 ± 0.2 % dose/g
  Radioactivity Distribution, Heart: 3.0 ± 0.2 % dose/g
  Radioactivity Distribution, Large intestine: 7.0 ± 0.6 % dose/g
  Radioactivity Distribution, Lung: 2.6 ± 0.2 % dose/g
  Radioactivity Distribution, Small intestine: 6.0 ± 0.7 % dose/g
  Radioactivity Distribution, Spleen: 2.2 ± 0.2 % dose/g
  Radioactivity Distribution, Stomach: 4.1 ± 0.9 % dose/g
  Adrenal gland/Kidney ratio: 1.88 ± 0.55
  Radioactivity Distribution, Adrenal gland: 4.7 ± 1.7 % dose/g
  Radioactivity Distribution, Kidney: 2.5 ± 0.4 % dose/g
  Radioactivity Distribution, Liver: 3.7 ± 0.3 % dose/g
  Radioactivity Distribution, Pancreas: 2.0 ± 0.1 % dose/g
  Adrenal gland/Liver ratio: 1.26 ± 0.37
120 min
  Adrenal gland/Blood ratio: 0.58 ± 0.44
  Radioactivity Distribution, Blood: 2.8 ± 0.5 % dose/g
  Radioactivity Distribution, Femur: 6.4 ± 0.4 % dose/g
  Radioactivity Distribution, Heart: 2.4 ± 0.3 % dose/g
  Radioactivity Distribution, Large intestine: 9.1 ± 1.4 % dose/g
  Radioactivity Distribution, Lung: 2.1 ± 0.1 % dose/g
  Radioactivity Distribution, Small intestine: 3.1 ± 0.6 % dose/g
  Radioactivity Distribution, Spleen: 1.8 ± 0.2 % dose/g
  Radioactivity Distribution, Stomach: 3.9 ± 0.6 % dose/g
  Adrenal gland/Kidney ratio: 0.99 ± 0.77
  Radioactivity Distribution, Adrenal gland: 2.2 ± 1.2 % dose/g
  Radioactivity Distribution, Kidney: 1.7 ± 0.1 % dose/g
  Radioactivity Distribution, Liver: 2.9 ± 0.5 % dose/g
  Radioactivity Distribution, Pancreas: 1.5 ± 0.2 % dose/g
  Adrenal gland/Liver ratio: 0.58 ± 0.46

## O=C1CCc2cc(-c3cncc(OCC[18F])c3)cc3c2N1CC3 [[^18F]PAY54, 8-(5-(2-[^18F]fluoroethyloxy)pyridin-3-yl)-1,2,5,6-tetrahydro-4H-pyrrolo[3,2,1-ij]quinolin-4-one]
5 minutes after administration
  radioactivity accumulation in the adrenal gland compared with blood and the kidney: high radioactivity accumulation
5 min
  Adrenal gland/Blood ratio: 1.55 ± 0.43
  Radioactivity Distribution, Blood: 4.5 ± 0.2 % dose/g
  Radioactivity Distribution, Femur: 1.9 ± 0.2 % dose/g
  Radioactivity Distribution, Heart: 4.5 ± 0.5 % dose/g
  Radioactivity Distribution, Large intestine: 3.5 ± 0.3 % dose/g
  Radioactivity Distribution, Lung: 4.6 ± 0.2 % dose/g
  Radioactivity Distribution, Small intestine: 5.6 ± 0.3 % dose/g
  Radioactivity Distribution, Spleen: 3.6 ± 0.2 % dose/g
  Radioactivity Distribution, Stomach: 4.6 ± 1.5 % dose/g
  Adrenal gland/Kidney ratio: 1.60 ± 0.50
  Radioactivity Distribution, Adrenal gland: 7.0 ± 2.1 % dose/g
  Radioactivity Distribution, Kidney: 4.4 ± 0.5 % dose/g
  Radioactivity Distribution, Liver: 7.5 ± 0.5 % dose/g
  Radioactivity Distribution, Pancreas: 3.4 ± 0.3 % dose/g
  Adrenal gland/Liver ratio: 0.95 ± 0.34
15 min
  Adrenal gland/Blood ratio: 0.86 ± 0.15
  Radioactivity Distribution, Blood: 4.5 ± 0.2 % dose/g
  Radioactivity Distribution, Femur: 2.3 ± 0.1 % dose/g
  Radioactivity Distribution, Heart: 3.8 ± 0.2 % dose/g
  Radioactivity Distribution, Large intestine: 6.2 ± 0.5 % dose/g
  Radioactivity Distribution, Lung: 3.7 ± 0.2 % dose/g
  Radioactivity Distribution, Small intestine: 5.3 ± 0.6 % dose/g
  Radioactivity Distribution, Spleen: 3.1 ± 0.2 % dose/g
  Radioactivity Distribution, Stomach: 4.9 ± 0.4 % dose/g
  Adrenal gland/Kidney ratio: 1.11 ± 0.15
  Radioactivity Distribution, Adrenal gland: 3.9 ± 0.8 % dose/g
  Radioactivity Distribution, Kidney: 3.5 ± 0.6 % dose/g
  Radioactivity Distribution, Liver: 6.0 ± 0.4 % dose/g
  Radioactivity Distribution, Pancreas: 2.7 ± 0.2 % dose/g
  Adrenal gland/Liver ratio: 0.64 ± 0.13
30 min
  Adrenal gland/Blood ratio: 0.82 ± 0.13
  Radioactivity Distribution, Blood: 4.3 ± 0.4 % dose/g
  Radioactivity Distribution, Femur: 2.7 ± 0.3 % dose/g
  Radioactivity Distribution, Heart: 3.7 ± 0.5 % dose/g
  Radioactivity Distribution, Large intestine: 8.5 ± 0.5 % dose/g
  Radioactivity Distribution, Lung: 3.4 ± 0.2 % dose/g
  Radioactivity Distribution, Small intestine: 5.0 ± 0.9 % dose/g
  Radioactivity Distribution, Spleen: 3.1 ± 0.1 % dose/g
  Radioactivity Distribution, Stomach: 3.5 ± 0.2 % dose/g
  Adrenal gland/Kidney ratio: 0.98 ± 0.15
  Radioactivity Distribution, Adrenal gland: 3.5 ± 0.4 % dose/g
  Radioactivity Distribution, Kidney: 3.6 ± 0.4 % dose/g
  Radioactivity Distribution, Liver: 5.7 ± 0.6 % dose/g
  Radioactivity Distribution, Pancreas: 2.6 ± 0.2 % dose/g
  Adrenal gland/Liver ratio: 0.61 ± 0.12
60 min
  Adrenal gland/Blood ratio: 1.16 ± 0.15
  Radioactivity Distribution, Blood: 3.5 ± 0.5 % dose/g
  Radioactivity Distribution, Femur: 3.4 ± 0.7 % dose/g
  Radioactivity Distribution, Heart: 2.9 ± 0.5 % dose/g
  Radioactivity Distribution, Large intestine: 7.7 ± 1.2 % dose/g
  Radioactivity Distribution, Lung: 2.9 ± 0.4 % dose/g
  Radioactivity Distribution, Small intestine: 3.7 ± 0.7 % dose/g
  Radioactivity Distribution, Spleen: 2.3 ± 0.6 % dose/g
  Radioactivity Distribution, Stomach: 4.3 ± 0.3 % dose/g
  Adrenal gland/Kidney ratio: 1.40 ± 0.34
  Radioactivity Distribution, Adrenal gland: 4.1 ± 1.0 % dose/g
  Radioactivity Distribution, Kidney: 3.0 ± 0.3 % dose/g
  Radioactivity Distribution, Liver: 5.0 ± 0.3 % dose/g
  Radioactivity Distribution, Pancreas: 2.4 ± 0.4 % dose/g
  Adrenal gland/Liver ratio: 0.82 ± 0.19
120 min
  Adrenal gland/Blood ratio: 0.61 ± 0.63
  Radioactivity Distribution, Blood: 2.8 ± 0.2 % dose/g
  Radioactivity Distribution, Femur: 4.5 ± 0.1 % dose/g
  Radioactivity Distribution, Heart: 2.4 ± 0.4 % dose/g
  Radioactivity Distribution, Large intestine: 7.9 ± 0.7 % dose/g
  Radioactivity Distribution, Lung: 2.2 ± 0.2 % dose/g
  Radioactivity Distribution, Small intestine: 2.4 ± 0.1 % dose/g
  Radioactivity Distribution, Spleen: 2.0 ± 0.2 % dose/g
  Radioactivity Distribution, Stomach: 3.5 ± 0.6 % dose/g
  Adrenal gland/Kidney ratio: 0.58 ± 0.54
  Radioactivity Distribution, Adrenal gland: 2.0 ± 1.5 % dose/g
  Radioactivity Distribution, Kidney: 2.8 ± 0.4 % dose/g
  Radioactivity Distribution, Liver: 4.7 ± 0.6 % dose/g
  Radioactivity Distribution, Pancreas: 1.7 ± 0.2 % dose/g
  Adrenal gland/Liver ratio: 0.38 ± 0.41
